Results from patent publication US20240083890A1, “MACROCYCLIC BRANCHED 3-FLUORO-BUT-3-ENAMIDES AS INHIBITORS OF MCL-1” (JANSSEN PHARMACEUTICA NV, priority 2020, published 2024).
Like-named read-outs stand apart in the source and are kept apart here.

Legend:
[1] = target: Mcl-1 (Homo sapiens (Human), UniProt Q07820); experiment: Terbium labeled Mcl-1 HTRF binding assay, displacement of Cy5-labeled BIM BH3 peptide; conditions: Ki=IC50/(1+[L]/Kd), [L]=8 nM, Kd=10 nM; 25 pM Tb-Mcl-1, 8 nM Cy5 Bim peptide, 60 min; read-out: Tb-MCL1 Ki
Experimental: Terbium labeled Myeloid Cell Leukemia 1(Mcl-1) homogeneous time-resolved fluorescence (HTRF) binding assay utilizing the BIM BH3 peptide (H2N—(C/Cy5Mal) WIAQELRRIGDEFN-OH) as the binding partner for Mcl-1.
This assay evaluated inhibition of the BH3 domain: Mcl-1 interaction by measuring the displacement of Cy5-labeled BIM BH3 peptide (H2N—(C/Cy5Mal) WIAQELRRIGDEFN-OH) in the HTRF assay format.
The following assay and stock buffers were prepared for use in the assay: (a) Stock buffer: 10 mM Tris-HCl, pH=7.5+150 mM NaCl, filtered, sterilized, and stored at 4° C.; and (b) 1× assay buffer, where the following ingredients were added fresh to stock buffer: 2 mM dithiothreitol (DTT), 0.0025% Tween-20, 0.1 mg/mL bovine serum albumin (BSA). The 1× Tb-Mcl-1+Cy5 Bim peptide solution was prepared by diluting the protein stock solution using the 1× assay buffer (b) to 25 pM Tb-Mcl-1 and 8 nM Cy5 Bim peptide.
Using the Acoustic ECHO, 100 nL of 100× test compound(s) were dispensed into individual wells of a white 384-well Perkin Elmer Proxiplate, for a final compound concentration of 1× and final DMSO concentration of 1%. Inhibitor control and neutral control (NC, 100 nL of 100% DMSO) were stamped into columns 23 and 24 of assay plate. Into each well of the plate was then dispensed 10 μL of the 1× Tb-Mcl-1+Cy5 Bim peptide solution. The plate was centrifuged with a cover plate at 1000 rpm for 1 minute, then incubated for 60 minutes at room temperature with plates covered.
The TR-FRET signal was read on an BMG PHERAStar FSX MicroPlate Reader at room temperature using the HTRF optic module (HTRF: excitation: 337 nm, light source: laser, emission A: 665 nm, emission B: 620 nm, integration start: 60 μs, integration time: […]).
The BMG PHERAStar FSX MicroPlate Reader was used to measure fluorescence intensity at two emission wavelengths—665 nm and 620 nm—and report relative fluorescence units (RFU) for both emissions, as well as a ratio of the emissions (665 nm/620 nm)*10,000. The RFU values were normalized to percent inhibition as follows:
% inhibition (((NC−IC)−(compound-IC))/(NC−IC))*100
where IC (inhibitor control, low signal)=mean signal of 1× Tb-MCl-1+Cy5 Bim peptide+inhibitor control or 100% inhibition of Mel-1; NC (neutral control, high signal)=mean signal 1× Tb-MCI-1+Cy5 Bim peptide with DMSO only or 0% inhibition
An 11-point dose response curve was generated to determine IC50 values (using GenData) based on the following equation:
Y=Bottom+(Top-Bottom)/(1+10^((log IC50−X)*HillSlope))
where Y=% inhibition in the presence of X inhibitor concentration; Top=100% inhibition derived from the IC (mean signal of Mcl-1+inhibitor control); Bottom=0% inhibition derived from the NC (mean signal of Mcl-1+DMSO); Hillslope=Hill coefficient; and IC50=concentration of compound with 50% inhibition in relation to top/neutral control (NC).
In this assay [L]=8 nM and Kd=10 nM
Representative compounds of the present invention were tested according to the procedure as described above, with results as listed in the Table below (n.d. means not determined).

[2] = tested on: MOLP-8 human multiple myeloma cell line; experiment: Caspase-Glo 3/7 apoptosis induction assay in MOLP-8 cells; format: cell-based; conditions: caspase-3/7 activation, 2 hours incubation at 37° C., averaged over all runs on all batches, read-out: MOLP8 AC50
Text: MCL-1 is a regulator of apoptosis and is highly over-expressed in tumor cells that escape cell death. The assay evaluates the cellular potency of small-molecule compounds targeting regulators of the apoptosis pathway, primarily MCL-1, Bfl-1, Bcl-2, and other proteins of the Bcl-2 family. Protein-protein inhibitors disrupting the interaction of anti-apoptotic regulators with BH3-domain proteins initiate apoptosis.
The Caspase-Glo® 3/7 Assay is a luminescent assay that measures caspase-3 and -7 activities in purified enzyme preparations or cultures of adherent or suspension cells. The assay provides a proluminescent caspase-3/7 substrate, which contains the tetrapeptide sequence DEVD. This substrate is cleaved to release aminoluciferin, a substrate of luciferase used in the production of light. Addition of the single Caspase-Glo® 3/7 Reagent in an “add-mix-measure” format results in cell lysis, followed by caspase cleavage of the substrate and generation of a “glow-type” luminescent signal.
This assay uses the MOLP-8 human multiple myeloma cell line, which is sensitive to MCL-1 inhibition.
Cell cultures were maintained between 0.2 and 2.0×10^6 cells/mL. The cells were harvested by collection in 50 mL conical tubes. The cells were then pelleted at 500 g for 5 mins before removing supernatant and resuspension in fresh pre-warmed culture medium. The cells were counted and diluted as needed.
The assay reagent was prepared by transferring the buffer solution to the substrate vial and mixing. The solution may be stored for up to 1 week at 4° C. with negligible loss of signal.
Compounds were delivered in assay-ready plates (Proxiplate) and stored at −20° C.
Assays always include 1 reference compound plate containing reference compounds. The plates were spotted with 40 nL of compounds (0.5% DMSO final in cells; serial dilution; 30 μM highest conc. 1/3 dilution, 10 doses, duplicates). The compounds were used at room temperature and 4 μL of pre-warmed media was added to all wells except column 2 and 23. The negative control was prepared by adding 1% DMSO in media. The positive control was prepared by adding the appropriate positive control compound in final concentration of 60 μM in media. The plate was prepared by adding 4 μL negative control to column 23, 4 μL positive control to column 2, and 4 μL cell suspension to all wells in the plate. The plate with cells was then incubated at 37° C. for 2 hours. The assay signal reagent is the Caspase-Glo solution described above, and 8 μL was added to all wells. The plates were then sealed and measured after 30 minutes.
The activity of a test compound was calculated as percent change in apoptosis induction as follows: • LC=median of the Low Control values • =Central Reference in Screener • =DMSO • =0% • HC=Median of the High Control values • =Scale Reference in Screener • =30 μM of positive control • =100% apoptosis induction
% Effect (AC50)=100−((sample-LC)/(HC-LC))*100
% Control=(sample/HC)*100
% Control min=((sample-LC)/(HC-LC))*100
Table: Measured AC50 for Representative Compounds of Formula (I). Averaged values are reported over all runs on all batches of a particular compound.

Chain of Mcl-1 (Q07820 whole entry): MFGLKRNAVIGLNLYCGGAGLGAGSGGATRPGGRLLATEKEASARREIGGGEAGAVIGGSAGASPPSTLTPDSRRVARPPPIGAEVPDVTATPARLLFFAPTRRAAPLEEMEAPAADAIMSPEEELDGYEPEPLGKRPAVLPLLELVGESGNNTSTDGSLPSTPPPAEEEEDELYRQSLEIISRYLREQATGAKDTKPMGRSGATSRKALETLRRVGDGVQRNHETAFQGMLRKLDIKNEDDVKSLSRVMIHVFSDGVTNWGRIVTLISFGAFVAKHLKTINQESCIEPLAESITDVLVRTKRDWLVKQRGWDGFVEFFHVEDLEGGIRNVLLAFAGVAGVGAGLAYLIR

| Compound | Ki [1] [nM] | AC50 ([2]; Homo sapiens, MOLP-8) [nM] | AC50 [2] [nM] |
| --- | --- | --- | --- |
| C[C@@H]1[C@@H](C)C/C=C(\F)[C@H]([C@@H](O)CN(C)CC2CCOCC2)N2CC[C@H]2CN2C[C@@]3(CCCc4cc(Cl)ccc43)COc3ccc(cc32)C(=O)NS1(=O)=O [Compound 28] | 0.037 | 211 |  |
| COCCCN(CCOC)C[C@H](O)[C@H]1/C(F)=C/C[C@H](C)[C@@H](C)S(=O)(=O)NC(=O)c2ccc3c(c2)N(C[C@@H]2CCN21)C[C@@]1(CCCc2cc(Cl)ccc21)CO3 [Compound 26] | 0.044 | 123 |  |
| C[C@@H]1[C@@H](C)C/C=C(\F)[C@H]([C@@H](O)COCC2CCOCC2)N2CC[C@H]2CN2C[C@@]3(CCCc4cc(Cl)ccc43)COc3ccc(cc32)C(=O)NS1(=O)=O [Compound 6] | 0.053 | 68.5 |  |
| C[C@@H]1[C@@H](C)C/C=C(\F)C2(COC(C)(C)OC2)N2CCC[C@H]2CN2C[C@@]3(CCCc4cc(Cl)ccc43)COc3ccc(cc32)C(=O)NS1(=O)=O [Compound 14] | 0.241 | 759 |  |
| C[C@@H]1[C@@H](C)C/C=C(\F)[C@H]([C@@H](C)O)N2CC[C@H]2CN2C[C@@]3(CCCc4cc(Cl)ccc43)COc3ccc(cc32)C(=O)NS1(=O)=O [Compound 1] | 0.326 | 116 |  |
| COCC(COC)OC[C@H](O)[C@H]1/C(F)=C/C[C@H](C)[C@@H](C)S(=O)(=O)NC(=O)c2ccc3c(c2)N(C[C@@H]2CCN21)C[C@@]1(CCCc2cc(Cl)ccc21)CO3 [Compound 24] | 0.036 | 46.3 |  |
| COCCN(CCOC)C[C@H](O)[C@H]1/C(F)=C/C[C@H](C)[C@@H](C)S(=O)(=O)NC(=O)c2ccc3c(c2)N(C[C@@H]2CCN21)C[C@@]1(CCCc2cc(Cl)ccc21)CO3 [Compound 23] | 0.023 | 69.6 |  |
| CO[C@H](C)[C@H]1/C(F)=C/C[C@H](C)[C@@H](C)S(=O)(=O)NC(=O)c2ccc3c(c2)N(C[C@@H]2CCCN21)C[C@@]1(CCOc2cc(Cl)ccc21)CO3 [Compound 32] | 1.93 | 3710 |  |
| C[C@@H]1[C@@H](C)C/C=C(\F)C(C(O)COCC2CCOCC2)N2CC[C@H]2CN2C[C@@]3(CCCc4cc(Cl)ccc43)COc3ccc(cc32)C(=O)NS1(=O)=O (single isomer, unassigned) [Compound 5] | 0.23 | 238 |  |
| CO[C@@H](CO)[C@@]1(CO)/C(F)=C/C[C@H](C)[C@@H](C)S(=O)(=O)NC(=O)c2ccc3c(c2)N(C[C@@H]2CCN21)C[C@@]1(CCCc2cc(Cl)ccc21)CO3 [Compound 8] | 0.357 | 3960 |  |
| C[C@@H]1[C@@H](C)C/C=C(\F)[C@@]2(COC(C)(C)OC[C@@H]2O)N2CC[C@H]2CN2C[C@@]3(CCCc4cc(Cl)ccc43)COc3ccc(cc32)C(=O)NS1(=O)=O [Compound 9] | 0.04 | 64.8 |  |
| C[C@@H]1[C@@H](C)C/C=C(\F)[C@H]([C@@H](C)O)N2CCC[C@H]2CN2C[C@@]3(CCOc4cc(Cl)ccc43)COc3ccc(cc32)C(=O)NS1(=O)=O [Compound 17] | 2.41 | 3350 |  |
| C[C@H](O)[C@@H]1/C(F)=C/C[C@H](C)[C@@H](C)S(=O)(=O)NC(=O)c2ccc3c(c2)N(C[C@@H]2CCCN21)C[C@@]1(CCOc2cc(Cl)ccc21)CO3 [Compound 18] | 0.606 |  | 3420 |
| COC[C@]1([C@@H]2COC(C)(C)O2)/C(F)=C/C[C@H](C)[C@@H](C)S(=O)(=O)NC(=O)c2ccc3c(c2)N(C[C@@H]2CCN21)C[C@@]1(CCCc2cc(Cl)ccc21)CO3 [Compound 7] | 0.221 | 134 |  |
| C[C@@H]1[C@@H](C)C/C=C(\F)[C@H]([C@@H](O)CN(C)C)N2CC[C@H]2CN2C[C@@]3(CCCc4cc(Cl)ccc43)COc3ccc(cc32)C(=O)NS1(=O)=O [Compound 31] | 0.041 | 1020 |  |
| COC[C@H](O)[C@@]1(COC)/C(F)=C/C[C@H](C)[C@@H](C)S(=O)(=O)NC(=O)c2ccc3c(c2)N(C[C@@H]2CCN21)C[C@@]1(CCCc2cc(Cl)ccc21)CO3 [Compound 16] | 0.072 | 222 |  |
